# Laboratory results from patent US20170226518A1, “COMPOSITIONS AND METHODS FOR TREATING CANCER” (Autotelic LLC, priority 2016, published 2017).
# In the oligonucleotide strings, read from the 5' end, every base follows the letter of its sugar. An asterisk marks phosphorothioate; unmarked linkages are phosphodiester. Other units and linkages are bracketed, terminal groups are in braces. A string of capitals states the bases alone. d = 2'-deoxy (DNA)
# How the values were obtained:
# [1] = tested on: A-172 glioma cells; experiment: Proliferation of A-172 glioma cells; assay type: cell-based; conditions: 7 days, treatment schedule 2*2/1*3 d
# Protocol: A-172 glioma cells were treated with a combination of AP12009 (trabedersen) 0 to 10 μM) and different concentrations of TMZ (temozolomide) for 7 days (treatment schedule 2*2/1*3 d).
# In summary there is no clear beneficial effect in combining AP12009 with TMZ in A-172 cells.
# [2] = tested on: TGFβ2; experiment: TGFβ2 secretion/expression in WiDr colon cancer cells; assay type: cell-based; conditions: 10 μM AP12009
# Text: (§1) The aim of the study was to determine the effect of AP12009 (trabedersen) treatment in combination with 5-Fluorouracil (5-FU) on TGFβ2 secretion and on cellular proliferation of HUP-T3 pancreatic cancer cells and WiDr colon cancer cells in vitro.
# [3] = tested on: HUP-T3 pancreatic cancer cells; experiment: Cellular proliferation of HUP-T3 pancreatic cancer cells in vitro; assay type: cell-based; conditions: 10 μM AP12009 as monotherapy
# Protocol: as §1
# 10 μM of AP12009 as monotherapy decreased cell proliferation (53% proliferation of untreated control) and TGFβ2 expression (42% of untreated control) in HUP-T3 cells.
# [4] = tested on: pancreatic cancer; experiment: Phase I/II study P-001: PFS and OS in pancreatic cancer patients; assay type: in vivo, human; conditions: for OS: pancreatic cancer; for OS (overall survival) / PFS (progression free survival): second line pancreatic cancer patients, 4 days on and 10 days off
# Protocol: (§2) At screening, up to 10 “measurable lesions” (i.e. lesions that could be accurately measured in at least 1 dimension with a longest diameter of 2 cm) representative of all involved organs were identified as “target lesions” for tumor response assessment and were measured and documented. All other lesions were defined and recorded as “non-target lesions”. Tumor response was determined by the local investigator every 8 weeks after start of the first trabedersen cycle during follow-up visits, irrespective of whether the patient was still on treatment or off treatment. The tumor assessment was based on Response Evaluation Criteria in Solid Tumors (RECIST 1.0) criteria. The categories of overall tumor response are as follows: (1) Complete response (CR): disappearance of all target and non-target lesions and normalization of tumor marker level; (2) Partial response (PR): at least 30% decrease in the sum of the longest diameter (LD) of target lesions (baseline sum LD as reference) and/or persistence of one or more non-target lesions and/or maintenance of tumor marker level above normal limits; (3) Stable disease (SD): less than 30% decrease or less than 20% increase in sum LD target lesions (smallest sum LD since treatment start as reference) and/or persistence of one or more non-target lesions and/or maintenance of tumor marker level above normal limits; (4) Progressive disease (PD) At least 20% increase in sum LD target lesions (smallest sum LD since treatment start as reference) and/or unequivocal progression of existing nontarget lesions and/or appearance of one or more new lesions; and (5) Unknown.
# (§3) Progression-free survival (PFS) was defined as the time from Day 1 until tumor progression or death from any cause. The date of progression was either the date of the image showing progression or the date of treatment termination in case one of the reasons for treatment termination was tumor progression (referring to clinical progression as assessed by the Investigator), whichever occurred first.
# Overall survival (OS) was defined as the time from Day 1 until death from any cause. All patients were followed for survival during the follow-up assessments every 8 weeks. The survival status was documented at the Final Visit (Day 29) and during the 8-weekly post-treatment follow-up assessments, and was continued to be collected after study closure until database lock or until the patient was lost to follow-up.
# There were […] line patients and 11 third line and beyond on the 4 days on and 10 days off regimen. The PFS/OS (progression free survival/overall survival ratio) of these second line patients in months were: 1.87/5.60 (N=6), 1.87/9.93 (N=11) and 2.72/11.80 (N=5) at increasing mean dose of 140 mg/m^2/day, 167 mg/m^2/day, and 196 mg/m^2/day, respectively. The OS of 9.93 and 11.80 are higher than the highest reported in the 65 trials reported in the literature during 1997-2015 (range=2.50-9.20/median=5.50). The corresponding PFS values were in line with reported literature (range=0.00-7.65/median=2.43). […] Trabedersen itself was not having an impact on the tumor (FIG. 1).
# [5] = tested on: C8161 human melanoma cells; experiment: C8161 melanoma xenograft model: tumor growth and survival
# Protocol: Sixty female athymic nude mice were intradermally inoculated with C8161 human melanoma cells and randomized into six groups of 10 mice. Three groups received monotherapy treatment with either OT-101 (trabedersen) (16 mg/kg) (Group 2) or Dacarbazine (DTIC; 1 or 10 mg/kg; Groups 3, 4). Two groups received combination therapy with OT-101/DTIC at 16/1 mg/kg or 16/10 mg/kg (Groups 5 and 6). Vehicle (0.9% saline, Groups 1, 3, and 4) and OT-101 were administered 3 times/week via subcutaneous injection. Vehicle (0.9% saline, Groups 1 and 2) and DTIC (1 or 10 mg/kg) were administered via intraperitoneal injection four times/week. All OT-101/Trabedersen treatments commenced at day 0 of the study and all DTIC treatments commenced on day 14. Mice were monitored for adverse effects, body weight and tumor size three times weekly. The tumor, lungs, liver and kidneys were excised from all mice at termination and weighed.
# [6] = tested on: melanoma; experiment: Phase I/II study P-001: PFS and OS in melanoma patients; assay type: in vivo, human
# Protocol: as §2, §3
# Overall survival (OS) was defined as the time from Day 1 until death from any cause. All patients were followed for survival during the follow-up assessments every 8 weeks. […]
# The primary objective was to determine the maximum tolerated dose (MTD) and the dose-limiting toxicity (DLTs) of two cycles of trabedersen administered intravenously (i.v.) for 7 days (7 days on and 7 days off) or for 4 days every other week (4 days on and 10 days off). The secondary objectives included assessment of the potential antitumor activity of trabedersen administered i.v. at weekly intervals and for four days every other week, as assessed by survival. […]
# [7] = Acute single dose toxicity study in mice; assay type: in vivo; conditions: 1 of 10 mice died (LLD10)
# Protocol: The clinical starting dose for the 7-days-on and 7-days-off schedule was based on the Lowest-Observed-Adverse-Effect-Level (LOAEL) devoid of severe toxicity in Cynomolgus monkeys as the most relevant species. This LOAEL of 4 mg/kg body weight (b.w.)/day is equivalent to approximately 1.3 mg/kg b.w./day or 48 mg/m^2/day on a body surface area basis in human adults. These numbers were rounded down and the safe starting dose was defined at 40 mg/m^2/day, equivalent to approximately 1 mg/kg b.w./day in humans. An alternative approach would have been based on the lowest lethal dose (LLD) of 300 mg/kg b.w. obtained in the acute single dose toxicity study in mice (in rats it was determined at 1000 mg/kg), at which 1 of 10 mice died (LLD10). According to the standard method, 10% of this dose (30 mg/kg) on a body surface area basis would then be defined as the clinical starting dose resulting in 90 mg/m^2/day. In the end, the lower of the two alternatives was chosen as starting dose.
# [8] = mean dose 167 mg/m^2/day (N=11)
substance,measurement,setting,value
trabedersen: TGFβ2 specific phosphorothioate antisense oligodeoxynucleotide with the sequence 5′-CGGCATGTCTATTTTGTA-3′ (SEQ ID No: 1) (antisense dC*dG*dG*dC*dA*dT*dG*dT*dC*dT*dA*dT*dT*dT*dT*dG*dT*dA),effect on cell proliferation,[1],slightly reduced cell proliferation
same,TGFβ2 expression (% of untreated control),[2],54%
same,cell proliferation (% proliferation of untreated control),[3],53%
same,overall survival (OS) rate versus dose,"[4]; pancreatic cancer patients, trabedersen as second line treatment (FIG. 1)",dose dependent increase
same,OS,[4]; 4/10 cohort treated with subsequent chemotherapies,14.7 mos
same,OS,[4]; 4/10 cohort without subsequent chemotherapies,2.93 mos
same,OS,[4]; chemotherapy on 2nd line followed with trabedersen 4/10 regimen as third line (N=9),2.80 mos
same,OS,[4]; trabedersen first on 2nd line followed with subsequent therapies (N=11),9.93 mos
same,OS (overall survival),[4]; mean dose 140 mg/m^2/day (N=6),5.60 months
same,PFS (progression free survival),[4]; mean dose 140 mg/m^2/day (N=6),1.87 months
same,OS (overall survival),[4]; [8],9.93 months
same,PFS (progression free survival),[4]; [8],1.87 months
same,OS (overall survival),[4]; mean dose 196 mg/m^2/day (N=5),11.80 months
same,PFS (progression free survival),[4]; mean dose 196 mg/m^2/day (N=5),2.72 months
same,Tumor growth suppressed relative to control group 1,"[5]; day 42, group 2: OT-101 16 mg/kg s.c. 3 times/week from day 0",2%
same,median survival,"[5]; group 2: OT-101 16 mg/kg, sacrifice at tumor size 2,000 mm^3",47 days
same,Median progression free survival (PFS),[6]; 15 patients,1.77 mos
same,median OS,"[6]; all doses, 19 patients",11.4 mos
same,OS,[6]; trabedersen followed by subsequent chemotherapy (N=9),13.70 mos
same,OS,[6]; without subsequent chemotherapy (N=7),5.5 mos
same,lowest lethal dose (LLD),[7],300 mg/kg b.w.
